We go through 40 compounds from US20250122173A1, “MODULATORS OF RHO-ASSOCIATED PROTEIN KINASE” (Redx Pharma Limited, priority 2022, published 2025).

Experiment [1] addresses T1, ROCK2 (Homo sapiens, UniProt O75116).
T1 construct: N-terminal 6His-tagged ROCK2 catalytic domain 11-552; 6His (N); purchased Dundee University, UK; host or cells: baculovirus expression system
The experiment is described as follows: ROCK2 inhibition assay (ADP-Glo kinase assay, called ROCK2 binding activity). The format is biochemical. Particulars: 20 μM ATP, 1 hour pre-incubation, read-out: ROCK 2 (IC50 category). As to the method: ROCK2 Binding Activity: Assay for ROCK2 inhibition was performed using the protein construct N-terminal 6His-tagged ROCK2 catalytic domain 11-552 (Dundee University, UK). Protein was purified from a baculovirus expression system. Long S6 peptide ([…]) was used as substrate. Kinase reactions were carried out in 15 μl volume in a 96-well plate (black, half area) using 1.25 nM constitutively active ROCK2 kinase, 100 μM long S6 peptide, 20 μM ATP and test compound in DMSO (or DMSO only for controls). The final concentration of DMSO was 1%. Assay buffer was 50 mM HEPES pH 7.5 supplemented with 0.2 mM EDTA, 10 mM magnesium acetate, 0.01% Tween-20, 1 mM DTT and 0.01% BSA. Test compounds were pre-incubated with ROCK2 kinase for 1 hour before addition of ATP and long S6 peptide. After incubation for a further 1 hour, the amount of ADP produced was measured using ADP-Glo Kinase Assay (Promega) as per manufacturer's instructions. The luminescence was measured on a PHERAstar FS (BMG Labtech). The concentration of test compound required to inhibit ADP production by 50% (the IC50) was calculated using a four-parameter logistic function with software by Dotmatics. […] The category “+” refers to compounds with a ROCK2 or ROCK1 IC50 value of >10 μM. The category “++” refers to compounds with a ROCK2 or ROCK1 IC50 value of 10 to 3 μM. The category “+++” refers to compounds with a ROCK1 or ROCK2 IC50 value of 3 to 0.3 μM. The category “++++” refers to compounds with a ROCK1 or ROCK2 IC50 value of <0.3 μM.
(ADP-Glo first removes unused ATP, then detects ADP through luciferase.)

For experiment [2], the target named is ROCK1 (Homo sapiens, UniProt Q13464). The experiment is described as follows: ROCK1 inhibition assay (ROCK1 binding activity, as determined by the assay described for ROCK2). The format is biochemical. Particulars: read-out: ROCK 1 (IC50 category). As to the method: Assay for ROCK2 inhibition was performed using the protein construct N-terminal 6His-tagged ROCK2 catalytic domain 11-552 (Dundee University, UK). Protein was purified from a baculovirus expression system. Long S6 peptide ([…]) was used as substrate. Kinase reactions were carried out in 15 μl volume in a 96-well plate (black, half area) using 1.25 nM constitutively active ROCK2 kinase, 100 μM long S6 peptide, 20 μM ATP and test compound in DMSO (or DMSO only for controls). The final concentration of DMSO was 1%. Assay buffer was 50 mM HEPES pH 7.5 supplemented with 0.2 mM EDTA, 10 mM magnesium acetate, 0.01% Tween-20, 1 mM DTT and 0.01% BSA. Test compounds were pre-incubated with ROCK2 kinase for 1 hour before addition of ATP and long S6 peptide. After incubation for a further 1 hour, the amount of ADP produced was measured using ADP-Glo Kinase Assay (Promega) as per manufacturer's instructions. The luminescence was measured on a PHERAstar FS (BMG Labtech). The concentration of test compound required to inhibit ADP production by 50% (the IC50) was calculated using a four-parameter logistic function with software by Dotmatics. […] The category “+” refers to compounds with a ROCK2 or ROCK1 IC50 value of >10 μM. The category “++” refers to compounds with a ROCK2 or ROCK1 IC50 value of 10 to 3 μM. The category “+++” refers to compounds with a ROCK1 or ROCK2 IC50 value of 3 to 0.3 μM. The category “++++” refers to compounds with a ROCK1 or ROCK2 IC50 value of <0.3 μM.
Sequence of ROCK1 (Q13464 whole entry, the tested form may be a part): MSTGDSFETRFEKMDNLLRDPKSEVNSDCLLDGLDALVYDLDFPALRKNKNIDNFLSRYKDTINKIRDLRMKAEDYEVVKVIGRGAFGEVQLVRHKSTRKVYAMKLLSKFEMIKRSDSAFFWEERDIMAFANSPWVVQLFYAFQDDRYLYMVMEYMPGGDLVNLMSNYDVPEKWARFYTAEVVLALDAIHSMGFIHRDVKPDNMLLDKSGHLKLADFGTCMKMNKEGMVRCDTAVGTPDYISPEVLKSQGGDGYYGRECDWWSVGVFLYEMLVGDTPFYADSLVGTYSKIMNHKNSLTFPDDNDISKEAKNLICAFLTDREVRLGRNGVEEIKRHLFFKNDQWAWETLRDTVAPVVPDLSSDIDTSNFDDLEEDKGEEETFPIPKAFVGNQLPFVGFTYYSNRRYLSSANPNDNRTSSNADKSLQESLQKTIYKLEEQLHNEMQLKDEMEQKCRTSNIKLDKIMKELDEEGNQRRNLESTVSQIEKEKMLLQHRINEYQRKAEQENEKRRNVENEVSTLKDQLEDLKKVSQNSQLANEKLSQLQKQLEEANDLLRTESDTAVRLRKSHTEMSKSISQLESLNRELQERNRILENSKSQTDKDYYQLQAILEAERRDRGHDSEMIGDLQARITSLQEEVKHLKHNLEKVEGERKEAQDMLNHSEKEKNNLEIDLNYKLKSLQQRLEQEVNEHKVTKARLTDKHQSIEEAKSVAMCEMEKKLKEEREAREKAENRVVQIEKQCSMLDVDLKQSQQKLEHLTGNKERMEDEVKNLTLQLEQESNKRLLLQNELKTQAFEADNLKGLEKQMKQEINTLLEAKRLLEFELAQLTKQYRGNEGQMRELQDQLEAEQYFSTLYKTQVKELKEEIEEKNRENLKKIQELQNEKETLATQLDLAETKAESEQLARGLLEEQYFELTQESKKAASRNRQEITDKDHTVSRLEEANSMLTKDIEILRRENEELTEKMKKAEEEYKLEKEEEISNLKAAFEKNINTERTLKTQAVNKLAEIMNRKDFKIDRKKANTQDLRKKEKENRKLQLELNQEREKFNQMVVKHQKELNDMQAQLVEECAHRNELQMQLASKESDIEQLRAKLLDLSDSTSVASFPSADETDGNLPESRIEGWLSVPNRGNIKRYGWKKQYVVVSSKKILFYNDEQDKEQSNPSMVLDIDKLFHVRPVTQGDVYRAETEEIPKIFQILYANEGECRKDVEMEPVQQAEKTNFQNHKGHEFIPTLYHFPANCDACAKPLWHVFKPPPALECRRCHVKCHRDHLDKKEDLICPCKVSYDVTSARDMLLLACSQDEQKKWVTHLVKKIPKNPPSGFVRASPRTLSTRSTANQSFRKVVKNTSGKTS

T1 sequence (O75116 11-552): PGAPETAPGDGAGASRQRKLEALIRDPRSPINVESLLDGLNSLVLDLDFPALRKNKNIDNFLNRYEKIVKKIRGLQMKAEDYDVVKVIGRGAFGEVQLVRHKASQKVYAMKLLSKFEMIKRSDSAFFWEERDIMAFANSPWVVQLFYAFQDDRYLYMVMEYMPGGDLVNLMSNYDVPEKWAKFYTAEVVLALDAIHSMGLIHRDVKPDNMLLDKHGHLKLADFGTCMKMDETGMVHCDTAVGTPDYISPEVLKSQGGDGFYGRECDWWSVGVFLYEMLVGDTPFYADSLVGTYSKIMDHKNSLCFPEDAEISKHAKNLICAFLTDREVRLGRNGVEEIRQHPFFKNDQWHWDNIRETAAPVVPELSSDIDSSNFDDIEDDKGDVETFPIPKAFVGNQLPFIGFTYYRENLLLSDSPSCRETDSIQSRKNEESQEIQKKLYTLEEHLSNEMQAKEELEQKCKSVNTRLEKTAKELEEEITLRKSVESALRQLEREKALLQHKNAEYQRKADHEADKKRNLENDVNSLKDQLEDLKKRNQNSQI

As for `CCn1nc(-c2ccc(-c3cnc(C)c(C)c3)cc2)nc1Nc1ccc2c(c1)CNC2=O` [Example 42], the IC50 in experiment [1] and in experiment [2] was less than 0.3 µM each time.
As to `CCn1nc(-c2ccc(-c3ccc(C)nc3)cc2)nc1Nc1ccc2c(c1C)C(C)NC2=O` (centres unmarked) [Example 43], the IC50 in experiment [1] was 3 to 10 µM; in experiment [2] it was more than 10 µM.
In the same order, the values of `CCn1nc(-c2ccc(-c3ccc(C)cn3)c(C)c2)nc1Nc1ccc2c(c1)CNC2=O` [Example 44] are less than 0.3 µM and more than 10 µM.
Regarding `CCn1nc(-c2ccc(-n3cnc(C4CC4)c3)cc2)nc1Nc1cc2c(cc1C)C(=O)NC2C` (centres unmarked) [Example 45], the IC50 in experiment [1] was less than 0.3 µM; in experiment [2] it was 3 to 10 µM.
The corresponding values for `CCn1nc(-c2ccc(-c3ccc(C)nc3)cc2)nc1Nc1cnc2c(c1)CNC2=O` [Example 46] are 0.3 to 3 µM and more than 10 µM.
With `CCn1nc(-c2ccc(-c3ccc(C4CC4)nc3)cc2)nc1Nc1ccc2c(c1)C(C)NC2=O` (centres unmarked) [Example 47], the values for the IC50 in experiment [1] and in experiment [2] were less than 0.3 µM and 3 to 10 µM, respectively.
The corresponding values for `CCn1nc(-c2ccc(-c3ccc(C4CC4)nc3)c(C)c2)nc1Nc1cc2c(cc1C)C(=O)NC2C` (centres unmarked) [Example 48] are less than 0.3 µM and 3 to 10 µM.
For the compound `CCn1nc(-c2ccc(-c3ccc(C4CC4)nc3)c(C)c2)nc1Nc1ccc2c(c1)C1(CC1)NC2=O` [Example 49], the IC50 in experiment [1] was less than 0.3 µM; in experiment [2] it was more than 10 µM.
The corresponding values for `CCn1nc(-c2ccc(-c3ccc(C4CC4)nc3)cc2C)nc1Nc1ccc2c(c1)C(C)NC2=O` (centres unmarked) [Example 50] are less than 0.3 µM and more than 10 µM.
Take `CCn1nc(-c2ccc(-c3ccc(C)nc3)c(C)c2)nc1Nc1ccc2c(c1)C1(CC1)NC2=O` [Example 51]: the figures for the IC50 in experiment [1] and in experiment [2] were less than 0.3 µM and more than 10 µM, respectively.
The corresponding values for `CCn1nc(-c2ccc(-c3ccc(C4CC4)cn3)c(C)c2)nc1Nc1ccc2c(c1)CNC2=O` [Example 52] are less than 0.3 µM and more than 10 µM.
The corresponding values for `CCn1nc(-c2ccc(-c3ccc(C)cn3)c(C)c2)nc1Nc1ccc2c(c1)C(C)NC2=O` (centres unmarked) [Example 53] are less than 0.3 µM and more than 10 µM.
The corresponding values for `CCn1nc(-c2ccc(C3CCNCC3)cc2)nc1Nc1ccc2c(c1)CNC2=O` [Example 54] are 3 to 10 µM and more than 10 µM.
On to `CCn1nc(-c2ccc(-c3ccc(C4CC4)nc3)cc2)nc1Nc1ccc2c(c1)C1(CC1)NC2=O` [Example 55], for which the figures for the IC50 in experiment [1] and in experiment [2] were less than 0.3 µM and more than 10 µM, respectively.
The corresponding values for `CCn1nc(-c2ccc(-c3ccc(C4CC4)nc3)cc2C)nc1Nc1cc2c(cc1C)C(=O)NC2C` (centres unmarked) [Example 56] are less than 0.3 µM and 3 to 10 µM.
The corresponding values for `CCn1nc(-c2ccc(-c3ccc(C)nc3)c(F)c2)nc1Nc1cc2c(cc1C)C(=O)NC2C` (centres unmarked) [Example 57] are less than 0.3 µM and more than 10 µM.
With `CCn1nc(-c2ccc(-c3cnc(C4CC4)n3C)cc2)nc1Nc1cc2c(cc1C)C(=O)NC2C` (centres unmarked) [Example 58], the results for the IC50 in experiment [1] and in experiment [2] were less than 0.3 µM and 3 to 10 µM, respectively.
The corresponding values for `CCn1nc(-c2ccc(-n3cnc(C4CC4)c3)c(C)c2)nc1Nc1cc2c(cc1C)C(=O)NC2C` (centres unmarked) [Example 59] are less than 0.3 µM and 3 to 10 µM.
Turning to `CCn1nc(-c2ccc(-c3ccc(C4CC4)nc3)nc2)nc1Nc1ccc2c(c1)C(C)NC2=O` (centres unmarked) [Example 60], the IC50 in experiment [1] was less than 0.3 µM; in experiment [2], more than 10 µM.
As for `CCn1nc(-c2ccc(-c3ccc(C)nc3)cc2)nc1Nc1ccc2c(c1)C(C)NC2=O` (centres unmarked) [Example 61], the IC50 in experiment [1] was less than 0.3 µM; in experiment [2], 3 to 10 µM.
In the same order, the values of `CCn1nc(-c2ccc(-c3ccc(C4CC4)nc3)c(F)c2)nc1Nc1cc2c(cc1C)C(=O)NC2C` (centres unmarked) [Example 62] are less than 0.3 µM and more than 10 µM.
In the same order, the values of `CCn1nc(-c2ccc(-c3ccc(C)nc3)cc2C)nc1Nc1ccc2c(c1)C(C)NC2=O` (centres unmarked) [Example 63] are less than 0.3 µM and 3 to 10 µM.
For the compound `CCn1nc(-c2ccc(-c3cnc(C4CC4)n3C)cc2)nc1Nc1ccc2c(c1)C(C)NC2=O` (centres unmarked) [Example 64], the IC50 in experiment [1] is less than 0.3 µM; in experiment [2], 3 to 10 µM.
As to `CCn1nc(-c2ccc(-c3cnc(C4CC4)n3C)c(C)c2)nc1Nc1ccc2c(c1)C(C)NC2=O` (centres unmarked) [Example 65], the IC50 was less than 0.3 µM in experiment [1] and 3 to 10 µM in experiment [2].
The corresponding values for `CCn1nc(-c2ccc(-c3ccc(C4CC4)nc3)c(C)c2)nc1Nc1ccc2c(c1)C(C)NC2=O` (centres unmarked) [Example 66] are less than 0.3 µM and more than 10 µM.
With `CCn1nc(-c2ccc(C3=CCNCC3)cc2)nc1Nc1ccc2c(c1)CNC2=O` [Example 67], the IC50 in experiment [1] and in experiment [2] was 3 to 10 µM throughout.
On to `CCn1nc(-c2ccc(C3=CCNC3)cc2)nc1Nc1ccc2c(c1)CNC2=O` [Example 68], for which the values for the IC50 in experiment [1] and in experiment [2] were 3 to 10 µM and more than 10 µM, respectively.
In the same order, the values of `CCn1nc(-c2ccc(-c3ccc(C)nc3)cc2)nc1Nc1ccc2c(c1)C1(CC1)NC2=O` [Example 69] are less than 0.3 µM and more than 10 µM.
The corresponding values for `CCn1nc(-c2ccc(-c3ccc(C4CC4)nc3)cc2)nc1Nc1cc2c(cc1C)C(=O)NC2C` (centres unmarked) [Example 70] are less than 0.3 µM and 3 to 10 µM.
As to `CCn1nc(-c2ccc(-c3ccc(C)nc3)nc2)nc1Nc1cc2c(cc1C)C(=O)NC2C` (centres unmarked) [Example 71], the IC50 in experiment [1] is less than 0.3 µM; in experiment [2], more than 10 µM.
As to `CCn1nc(-c2ccc(-c3ccc(C)nc3)c(C)c2)nc1Nc1ccc2c(c1)C(C)NC2=O` (centres unmarked) [Example 72], the IC50 was less than 0.3 µM in experiment [1] and more than 10 µM in experiment [2].
The corresponding values for `CCn1nc(-c2ccc(-c3ccc(C4CC4)nc3)cc2F)nc1Nc1cc2c(cc1C)C(=O)NC2C` (centres unmarked) [Example 73] are less than 0.3 µM and 3 to 10 µM.
In the same order, the values of `CCn1nc(-c2ccc(-c3ccc(C4CC4)nc3)cc2F)nc1Nc1ccc2c(c1)C(C)NC2=O` (centres unmarked) [Example 74] are less than 0.3 µM and 3 to 10 µM.
In the same order, the values of `CCn1nc(-c2ccc(-c3ccc(C)nc3)c(C)c2)nc1Nc1cc2c(cc1C)C(=O)NC2C` (centres unmarked) [Example 75] are less than 0.3 µM and 3 to 10 µM.
Turning to `CCn1nc(-c2ccc(-n3cnc(C4CC4)c3)c(C)c2)nc1Nc1ccc2c(c1)C(C)NC2=O` (centres unmarked) [Example 76], the IC50 in experiment [1] was less than 0.3 µM; in experiment [2], 3 to 10 µM.
Turning to `CCn1nc(-c2cc(C)c(-c3ccc(C)nc3)cc2C)nc1Nc1cc2c(cc1C)C(=O)NC2C` (centres unmarked) [Example 77], the IC50 in experiment [1] is less than 0.3 µM; in experiment [2], 3 to 10 µM.
In the same order, the values of `CCn1nc(-c2ccc(-c3ccc(C)cn3)c(F)c2)nc1Nc1ccc2c(c1)CNC2=O` [Example 79] are less than 0.3 µM and more than 10 µM.
In the same order, the values of `CCn1nc(-c2ccc(-c3ccc(C4CC4)nc3)c(C)c2)nc1Nc1cc2c(cc1F)C(=O)NC2C` (centres unmarked) [Example 80] are less than 0.3 µM and more than 10 µM.
For the compound `CCn1nc(-c2ccc(-c3ccc(C)nc3)cc2F)nc1Nc1ccc2c(c1)C(C)NC2=O` (centres unmarked) [Example 81], the IC50 in experiment [1] is less than 0.3 µM; in experiment [2], more than 10 µM.
On to `CCn1nc(-c2ccc(-n3cnc(C4CC4)c3)c(F)c2)nc1Nc1cc2c(cc1C)C(=O)NC2C` (centres unmarked) [Example 82], for which the IC50 in experiment [1] was less than 0.3 µM; in experiment [2] it was 3 to 10 µM.

For orientation: IC50 means the point on the concentration scale where inhibition reaches its midpoint.
